In brackets after ≈: the same amount, converted by molar mass. Read-outs that look alike come from different tables or passages of the source.
Columns and labels:
Test in all cases: Agar Dilution MIC (Table I)
Type in all cases: cell-based
Staph. epi = details: read-out: Agar Dilution MIC
Strep. PN = details: strain PARK
E. coli = details: Escherichia coli
Strep. D = details: for MIC: read-out: Agar Dilution MIC
Excerpt: A typical and preferred compound provided by this invention is 7-(3-benzothienyl)glycylamido-3-methyl-3-cephem-4-carboxylic acid, the compound illustrated in Example 9. The antibacterial activity of this compound has been determined in standard in vitro agar dilution assays against a variety of gram positive and gram negative microorganism. The following Tables present typical minimum inhibitory concentrations (MIC's) in μg/ml for several compounds of the invention when evaluated against the indicated microorganisms. MIC's for several known compounds are also presented for comparison.
Agar Dilution MIC (μg/ml)

Staph. aureus = details: Staphylococcus aureus
Strep. A = details: strain C203; read-out: Agar Dilution MIC
Klebsiella = details: for MIC: Klebsiella, read-out: Agar Dilution MIC
H. influ. = details: read-out: Agar Dilution MIC
[1] = read-out: Agar Dilution MIC, strain S13E
[2] = strain V41, read-out: Agar Dilution MIC
[3] = strain X1.1, read-out: Agar Dilution MIC
[4] = strain X400, read-out: Agar Dilution MIC

In the case of `CC1=C(C(=O)O)N2C(=O)C(NC(=O)[C@@H](N)c3csc4cccc(Cl)c34)C2SC1` (stereo partly drawn) [Ex. 36A, L-7-(4-chloro-3-benzothienyl)glycylamido-3-methyl-3-cephem-4-carboxylic acid], the MIC (Staph. epi) is reported as 128 µg/mL (≈ 292 µM), the MIC (Staph. epi; strain 222) is reported as 64 µg/mL (≈ 146 µM) and the MIC (Strep. PN) is reported as 8 µg/mL (≈ 18.3 µM). The MIC (E. coli; strain EC14) was 128 µg/mL (≈ 292 µM), the MIC (E. coli; strain N10) was 128 µg/mL (≈ 292 µM) and the MIC (E. coli; strain TEM) was 128 µg/mL (≈ 292 µM). The MIC (Strep. D) was 128 µg/mL (≈ 292 µM), the “Agar Dilution MIC” value (Strep. D; strain 2041) was 128 µg/mL and the MIC (Staph. aureus; [1]) was 128 µg/mL (≈ 292 µM). The MIC (Staph. aureus; [2]) was 128 µg/mL (≈ 292 µM), the MIC (Staph. aureus; [3]) was 64 µg/mL (≈ 146 µM) and the MIC (Staph. aureus; [4]) was 128 µg/mL (≈ 292 µM). The MIC (Strep. A) was 16 µg/mL (≈ 36.5 µM), the MIC (Klebsiella) was 128 µg/mL (≈ 292 µM) and the “Agar Dilution MIC” value (Klebsiella; strain KAE) was 128 µg/mL. The “Agar Dilution MIC” value (Klebsiella; strain X68) was 128 µg/mL, the MIC (H. influ.) was 128 µg/mL (≈ 292 µM) and the MIC (H. influ.; strain 76) was 4 µg/mL (≈ 9.13 µM).
For `CC1=C(C(=O)O)N2C(=O)C(NC(=O)[C@H](N)c3csc4cccc(Cl)c34)C2SC1` (stereo partly drawn) [Ex. 36B, D-7-(4-chloro-3-benzothienyl)glycylamido-3-methyl-3-cephem-4-carboxylic acid], the MIC (Staph. epi) was 128 µg/mL (≈ 292 µM), the MIC (Staph. epi; strain 222) was 8 µg/mL (≈ 18.3 µM) and the MIC (Strep. PN) was 8 µg/mL (≈ 18.3 µM). For the same compound, the MIC (E. coli; strain EC14) was 128 µg/mL (≈ 292 µM), the MIC (E. coli; strain N10) was 128 µg/mL (≈ 292 µM) and the MIC (E. coli; strain TEM) was 128 µg/mL (≈ 292 µM). The MIC (Strep. D) was 128 µg/mL (≈ 292 µM), the “Agar Dilution MIC” value (Strep. D; strain 2041) was 128 µg/mL and the MIC (Staph. aureus; [1]) was 128 µg/mL (≈ 292 µM). For the same compound, the MIC (Staph. aureus; [2]) was 128 µg/mL (≈ 292 µM), the MIC (Staph. aureus; [3]) was 16 µg/mL (≈ 36.5 µM) and the MIC (Staph. aureus; [4]) was 128 µg/mL (≈ 292 µM). For the same compound, the MIC (Strep. A) was 8 µg/mL (≈ 18.3 µM), the MIC (Klebsiella) was 128 µg/mL (≈ 292 µM) and the “Agar Dilution MIC” value (Klebsiella; strain KAE) was 128 µg/mL. For the same compound, the “Agar Dilution MIC” value (Klebsiella; strain X68) was 128 µg/mL, the MIC (H. influ.) was 128 µg/mL (≈ 292 µM) and the MIC (H. influ.; strain 76) was 16 µg/mL (≈ 36.5 µM).
In the case of `CC1=C(C(=O)O)N2C(=O)C(NC(=O)[C@@H](N)c3csc4cc(Cl)ccc34)C2SC1` (stereo partly drawn) [Ex. 37A, L-7-(6-Chloro-3-benzothienyl)glycylamido-3-methyl-3-cephem-4-carboxylic acid], the MIC (Staph. epi; strain 222) is reported as 32 µg/mL (≈ 73.1 µM), the MIC (Staph. epi; strain EPI1) is reported as 64 µg/mL (≈ 146 µM) and the MIC (Strep. PN) is reported as 16 µg/mL (≈ 36.5 µM). The MIC (E. coli; strain EC14) was 128 µg/mL (≈ 292 µM), the MIC (E. coli; strain N10) was 128 µg/mL (≈ 292 µM) and the MIC (E. coli; strain TEM) was 128 µg/mL (≈ 292 µM). The MIC (Strep. D; strain 2041) was 128 µg/mL (≈ 292 µM), the MIC (Strep. D; strain X66) was 128 µg/mL (≈ 292 µM) and the MIC (Staph. aureus; [1]) was 64 µg/mL (≈ 146 µM). The MIC (Staph. aureus; [2]) was 64 µg/mL (≈ 146 µM), the MIC (Staph. aureus; [3]) was 16 µg/mL (≈ 36.5 µM) and the MIC (Staph. aureus; [4]) was 128 µg/mL (≈ 292 µM). It also gave an MIC (Strep. A) of 4 µg/mL (≈ 9.13 µM), an MIC (Klebsiella; strain KAE) of 128 µg/mL (≈ 292 µM) and an MIC (Klebsiella; strain X26) of 64 µg/mL (≈ 146 µM). For the same compound, the MIC (Klebsiella; strain X68) was 128 µg/mL (≈ 292 µM), the MIC (H. influ.; strain 76) was 2 µg/mL (≈ 4.57 µM) and the MIC (H. influ.; strain C.L.) was 128 µg/mL (≈ 292 µM).
Compound `CC1=C(C(=O)O)N2C(=O)C(NC(=O)[C@H](N)c3csc4cc(Cl)ccc34)C2SC1` (stereo partly drawn) [Ex. 37B, D-7-(6-chloro-3-benzothienyl)glycylamido-3-methyl-3-cephem-4-carboxylic acid] has an MIC (Staph. epi; strain 222) of 2 µg/mL (≈ 4.57 µM), an MIC (Staph. epi; strain EPI1) of 4 µg/mL (≈ 9.13 µM) and an MIC (Strep. PN) of 1 µg/mL (≈ 2.28 µM). For the same compound, the MIC (E. coli; strain EC14) was 128 µg/mL (≈ 292 µM), the MIC (E. coli; strain N10) was 128 µg/mL (≈ 292 µM) and the MIC (E. coli; strain TEM) was 128 µg/mL (≈ 292 µM). For the same compound, the MIC (Strep. D; strain 2041) was 32 µg/mL (≈ 73.1 µM), the MIC (Strep. D; strain X66) was 128 µg/mL (≈ 292 µM) and the MIC (Staph. aureus; [2]) was 8 µg/mL (≈ 18.3 µM). For the same compound, the MIC (Staph. aureus; [3]) was 1 µg/mL (≈ 2.28 µM), the MIC (Staph. aureus; [4]) was 16 µg/mL (≈ 36.5 µM) and the MIC (Strep. A) was 0.5 µg/mL (≈ 1.14 µM). The MIC (Klebsiella; strain KAE) was 128 µg/mL (≈ 292 µM), the MIC (Klebsiella; strain X26) was 4 µg/mL (≈ 9.13 µM) and the MIC (Klebsiella; strain X68) was 128 µg/mL (≈ 292 µM). For the same compound, the MIC (H. influ.; strain 76) was 1 µg/mL (≈ 2.28 µM) and the MIC (H. influ.; strain C.L.) was 8 µg/mL (≈ 18.3 µM).
`CC1=C(C(=O)O)N2C(=O)C(NC(=O)[C@@H](N)c3csc4ccc(Cl)cc34)C2SC1` (stereo partly drawn) [Ex. 38A, L-7-(5-chloro-3-benzothienyl)glycylamido-3-methyl-3-cephem-4-carboxylic acid] showed an MIC (Staph. epi; strain 222) of 16 µg/mL (≈ 36.5 µM), an MIC (Staph. epi; strain EPI1) of 16 µg/mL (≈ 36.5 µM) and an MIC (Strep. PN) of 2 µg/mL (≈ 4.57 µM). For the same compound, the MIC (E. coli; strain EC14) was 64 µg/mL (≈ 146 µM), the MIC (E. coli; strain N10) was 64 µg/mL (≈ 146 µM) and the MIC (E. coli; strain TEM) was 64 µg/mL (≈ 146 µM). It also gave an MIC (Strep. D; strain 2041) of 64 µg/mL (≈ 146 µM), an MIC (Strep. D; strain X66) of 64 µg/mL (≈ 146 µM) and an MIC (Staph. aureus; [1]) of 16 µg/mL (≈ 36.5 µM). It also gave an MIC (Staph. aureus; [2]) of 32 µg/mL (≈ 73.1 µM), an MIC (Staph. aureus; [3]) of 8 µg/mL (≈ 18.3 µM) and an MIC (Staph. aureus; [4]) of 64 µg/mL (≈ 146 µM). For the same compound, the MIC (Strep. A) was 1 µg/mL (≈ 2.28 µM), the MIC (Klebsiella; strain KAE) was 64 µg/mL (≈ 146 µM) and the MIC (Klebsiella; strain X26) was 16 µg/mL (≈ 36.5 µM). It also gave an MIC (Klebsiella; strain X68) of 64 µg/mL (≈ 146 µM), an MIC (H. influ.; strain 76) of 2 µg/mL (≈ 4.57 µM) and an MIC (H. influ.; strain C.L.) of 32 µg/mL (≈ 73.1 µM).
In the case of `CC1=C(C(=O)O)N2C(=O)C(NC(=O)[C@H](N)c3csc4ccc(Cl)cc34)C2SC1` (stereo partly drawn) [Ex. 38B, D-7-(5-chloro-3-benzothienyl)glycylamido-3-methyl-3-cephem-4-carboxylic acid], the MIC (Staph. epi; strain 222) is reported as 2 µg/mL (≈ 4.57 µM), the MIC (Staph. epi; strain EPI1) is reported as 4 µg/mL (≈ 9.13 µM) and the MIC (Strep. PN) is reported as 0.25 µg/mL (≈ 0.571 µM). The MIC (E. coli; strain EC14) was 64 µg/mL (≈ 146 µM), the MIC (E. coli; strain N10) was 64 µg/mL (≈ 146 µM) and the MIC (E. coli; strain TEM) was 64 µg/mL (≈ 146 µM). For the same compound, the MIC (Strep. D; strain 2041) was 32 µg/mL (≈ 73.1 µM), the MIC (Strep. D; strain X66) was 64 µg/mL (≈ 146 µM) and the MIC (Staph. aureus; [2]) was 4 µg/mL (≈ 9.13 µM). The MIC (Staph. aureus; [3]) was 1 µg/mL (≈ 2.28 µM), the MIC (Staph. aureus; [4]) was 8 µg/mL (≈ 18.3 µM) and the MIC (Strep. A) was 0.25 µg/mL (≈ 0.571 µM). The MIC (Klebsiella; strain KAE) was 64 µg/mL (≈ 146 µM), the MIC (Klebsiella; strain X26) was 2 µg/mL (≈ 4.57 µM) and the MIC (Klebsiella; strain X68) was 64 µg/mL (≈ 146 µM).
